The text below walks through data of ChEMBL document CHEMBL4371025, “Discovery and evaluation of novel FAAH inhibitors in neuropathic pain model” (Bioorg Med Chem Lett, 2019).

In series [1] the test system is CYP3A4. The series is described as follows: Selectivity ratio of IC50 for CYP3A4 in human liver microsomes using testosterone as substrate to IC50 for human transmembrane domain deficient FFAH expressed in Escherichia coli. To be noted: probe testosterone, read-out: Ratio IC50. It is filed as toxicity. A general note: Microsomes from liver hold many membrane-bound enzymes, among them those of drug oxidation.

The test system of a further series is CYP1A2. Briefly: Selectivity ratio of IC50 for CYP1A2 in human liver microsomes to IC50 for rat FFAH expressed in Escherichia coli. To be noted: read-out: Ratio IC50. Type of series: toxicity.
For another series, the system named is CYP2D6. Briefly: Selectivity ratio of IC50 for CYP2D6 in human liver microsomes to IC50 for rat FFAH expressed in Escherichia coli. Type of series: toxicity. As to conditions: read-out: Ratio IC50; call rule not given here.
The test system of series [2] is CYP3A4. The series is described as follows: Selectivity ratio of IC50 for CYP3A4 in human liver microsomes using midazolam as substrate to IC50 for rat FFAH expressed in Escherichia coli. To be noted: probe midazolam, read-out: Ratio IC50. It is filed as toxicity.
For a further series, the target named is T1, Monoglyceride lipase (Homo sapiens, UniProt Q99685).
T1 sequence (Q99685 whole entry): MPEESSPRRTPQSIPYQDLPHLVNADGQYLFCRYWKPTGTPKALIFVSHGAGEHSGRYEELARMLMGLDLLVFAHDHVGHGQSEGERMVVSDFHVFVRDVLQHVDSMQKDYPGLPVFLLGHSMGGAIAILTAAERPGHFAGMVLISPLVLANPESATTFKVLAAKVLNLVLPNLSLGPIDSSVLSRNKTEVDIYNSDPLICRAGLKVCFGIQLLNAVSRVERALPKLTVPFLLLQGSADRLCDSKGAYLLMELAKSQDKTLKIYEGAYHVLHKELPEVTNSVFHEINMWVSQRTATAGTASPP
The series is described as follows: Inhibition of MAGL (unknown origin) up to 10 uM.

A short description of series [3]: Drug uptake in Sprague-Dawley rat brain at 3 mg/kg, iv or 10 mg/kg, po administered as single dose via gavage by LC-MS/MS analysis. Type of series: ADME, organism-based. To be noted: in vivo.
Series [4] in a line: Drug level in plasma of Sprague-Dawley rat at 10 mg/kg, po administered as single dose via gavage measured at 12 hrs by LC-MS/MS analysis. It is filed as ADME, organism-based.
Series [5] can be described thus: Drug level in liver of Sprague-Dawley rat at 10 mg/kg, po administered as single dose via gavage measured at 12 hrs by LC-MS/MS analysis. It is filed as ADME, organism-based. As to conditions: read-out: Drug uptake.
Series [6] can be described thus: Drug level in brain of Sprague-Dawley rat at 10 mg/kg, po administered as single dose via gavage measured at 12 hrs by LC-MS/MS analysis. Type of series: ADME, organism-based. As to conditions: read-out: Drug uptake.

Turning to `Cc1cc(C(=O)N[C@H]2CC/C(=C\c3cccc(Oc4ccc(C(F)(F)F)cn4)c3)CC2)cnc1N` (stereo not given), the selectivity ratio in the series on CYP3A4 [1], in the series on CYP1A2, in the series on CYP2D6 and with CYP3A4 [2] was > 5000 throughout. Besides, at Monoglyceride lipase, the “inhibition (INH)” value is recorded as “Not Active”. Also, in series [3], the Drug uptake lay in the range of 50 to 80%.

Regarding `Nc1ncc(C(=O)N[C@H]2CC/C(=C\c3cccc(Oc4ccc(C(F)(F)F)cn4)c3)CC2)cn1` (stereo not given), the selectivity ratio in the series on CYP3A4 [1], in the series on CYP1A2, with CYP2D6 and with CYP3A4 [2] was > 5000 each time. In addition, the “inhibition (INH)” value on Monoglyceride lipase is “Not Active”. In [3], the Drug uptake is 50 to 80%.

For the molecule `O=C(N[C@H]1CC/C(=C\c2cccc(Oc3ccc(C(F)(F)F)cn3)c2)CC1)c1cccnc1` (stereo not given), the concentration at 12 h worked out at 1.9 µM in series [4], 21 µM in [5] and 3.6 µM in series [6].
